Assay results published in US12162865B2, “Methods of treating cancer” (Epizyme, Inc., priority 2012, dated 2024).
“Also recorded” adds a separate entry of the source. Like-named read-outs stand apart in the source and are kept apart here.

What was measured:
WSU-DLCL2 cells [1] = details: with mouse plasma protein binding considered
[2] = tested on: SMARCB1 regulated genes in RD control cells; test: Gene expression analysis (qPCR), RD cells; assay type: cell-based; details: 1 μM
Procedure: (§1) Gene expression was normalized to 18S (AB #Hs99999901_s1) and fold change was calculated using the ΔΔCt method. For the in vivo samples, the average Ct value+/−SD was determined for each dose group and fold change compared to vehicle dose group was calculated using the ΔΔCt method.

CARM1 = CARM1 (Homo sapiens, UniProt Q86X55); test: Histone methyltransferase inhibition, CARM1; assay type: biochemical
EHMT2 = EHMT2 (Homo sapiens, UniProt Q96KQ7); test: Histone methyltransferase inhibition, EHMT2; assay type: biochemical
PRMT6 = PRMT6 (Homo sapiens, UniProt Q96LA8); test: Histone methyltransferase inhibition, PRMT6; assay type: biochemical; details: read-out: % Inhibition at 1 μM Compound A, mean and SD of duplicate experiments
G401 cells = details: pretreated 7 days, replated on day 0
Procedure: SJCRH30 cells were cultured in RPMI+10% FBS. A204, G401, and G402 cells were cultured in McCoys 5a+10% FBS. KYM-1 cells were cultured in DMEM/Ham's F12+10% FBS.
Plates were read on Day 0, Day 4, and Day 7 using CellTiter-Glo® (Promega), with compound/media being replenished on Day 4. On Day 7, the 6-well plates were trypsinized, centrifuged, and resuspended in fresh media for counting by Vi-Cell. Cells from each treatment were replated at the original density in 96-well plates in triplicate. Cells were allowed to adhere to the plate overnight, and cells were treated as on Day 0. […] Averages of triplicates were used to plot proliferation over the timecourse, and calculate IC50 values.

[3] = tested on: SMARCB1 regulated genes in G401 cells; test: Gene expression analysis (qPCR), G401 cells; assay type: cell-based; details: 1 μM, up to 7 days, time-dependent
Procedure: as §1

SMYD3 = SMYD3 (Homo sapiens, UniProt Q9H7B4); test: Histone methyltransferase inhibition, SMYD3; assay type: biochemical; details: read-out: % Inhibition at 1 μM Compound A, mean and SD of duplicate experiments
Pfeiffer cells = details: Pfeiffer (EZH2 A677G); 11-day proliferation
PRMT8 = PRMT8 (Homo sapiens, UniProt Q9NR22); test: Histone methyltransferase inhibition, PRMT8; assay type: biochemical
[4] = tested on: G402 SMARCB1-deleted cells; test: Cell morphology, G402 cells; assay type: cell-based; details: 1 μM, 14 days
H3K27Me3 in RD cells = details: 4 days, acid-extracted histones, immunoblot
Procedure: (§2) A204, G401, and G402 cells were cultured in McCoys 5a+10% FBS.
(§3) Cells were pelleted, washed with ice cold PBS, resuspended in ice cold RIPA buffer, and incubated on ice for 5 minutes. Lysates were sonicated 3× for 10 sec at 50% power, then incubated on ice for 10 minutes. Lysates were then centrifuged at max speed for 15 minutes at 4 degrees in a table top centrifuge. Clarified lysates were aliquoted to a fresh tube, and protein concentrations for WCL were determined by BCA assay (Pierce).

DOT1L = DOT1L (Homo sapiens, UniProt Q8TEK3); test: Histone methyltransferase inhibition, DOT1L; assay type: biochemical
SMYD2 = SMYD2 (Homo sapiens, UniProt Q9NRG4); test: Histone methyltransferase inhibition, SMYD2; assay type: biochemical
[5] = tested on: subcutaneous G401 xenografts
Procedure: ELISA: Histones were isolated from tumors as previously described (Daigle et al) and were prepared in equivalent concentrations (0.5 ng/ul for H3 and 4 ng/ul for H3K27Me3) in coating buffer (PBS with 0.05% BSA). […] The plates were sealed and incubated overnight at 4° C. The following day, plates were washed 3 times with 300 μL/well PBST (PBS with 0.05% Tween 20; 10×PBST, KPL #51-14-02) on a Bio Tek plate washer. Plates were blocked with 300 μL/well of diluent (PBS+2% BSA+0.05% Tween 20), incubated at room temperature for 2 hours, and washed 3 times with PBST. All antibodies were diluted in diluent. […] Plates were incubated for 90 minutes at room temperature and washed 3 times with PBST. […] Plates were washed 4 times with PBST. For detection, 100 μL/well of TMB substrate (BioFx Laboratories, #TMBS) was added and plates incubated in the dark at room temperature for 5 minutes. Reaction was stopped with 100 μL/well 1N H2SO4. Absorbance at 450 nm was read on SpectraMax M5 Microplate reader.
Xenograft study: All the procedures related to animal handling, care and the treatment in this study were performed according to the guidelines approved by the Institutional Animal Care and Use Committee (IACUC) of Shanghai Chemparner following the guidance of the Association for Assessment and Accreditation of Laboratory Animal Care (AAALAC). […] Animal body weights were measured every day during the first week, then twice weekly for the remainder of the study. Tumor size was measured twice weekly in two dimensions using a caliper, and the volume was expressed in mm^3. […] The remaining mice continued dosing for one more week, and from day 29, treatment was stopped and the mice were enrolled in a tumor growth delay study. Mice were observed as individuals until they reached the tumor weight endpoint (2000 mm^3) or until day 60 (whichever came first).

[6] = tested on: WSU-DLCL2 Human Lymphoma Cells; test: Washout experiments, WSU-DLCL2 proliferation (LCC); assay type: cell-based
[7] = tested on: G401 SMARCB1-deleted cells; test: Cell cycle analysis (flow cytometry) and TUNEL assay, G401; assay type: cell-based; details: 1 μM, up to 14 days
Procedure: (§4) Cell cycle analysis and TUNEL assay were performed using a Guava® flow cytometer, following the manufacturer's protocol.

PRMT1 = PRMT1 (Homo sapiens, UniProt Q99873); test: Histone methyltransferase inhibition, PRMT1; assay type: biochemical
[8] = Oral administration to rodents (bioavailability); assay type: in vivo; details: administered to rodents
KARPAS-422 xenografts = test: KARPAS-422 xenograft in mice; assay type: in vivo, nude mice; details: for antitumor effect, intermittent dosing schedules: 7-day on/7-day off and 21 day on/7 day off
OCI-LY19 cells = details: OCI-LY19 (EZH2 wild type for residue Y641)
WHSC1 = WHSC1 (Homo sapiens, UniProt O96028); test: Histone methyltransferase inhibition, WHSC1; assay type: biochemical
EHMT1 = EHMT1 (Homo sapiens, UniProt Q9H9B1); test: Histone methyltransferase inhibition, EHMT1; assay type: biochemical
PRMT5/MEP50 = PRMT5/MEP50 (Homo sapiens, UniProt O14744); test: Histone methyltransferase inhibition, PRMT5/MEP50; assay type: biochemical
PRMT3 = PRMT3 (Homo sapiens, UniProt O60678); test: Histone methyltransferase inhibition, PRMT3; assay type: biochemical; details: read-out: % Inhibition at 1 μM Compound A, mean and SD of duplicate experiments
H3K27Me3 in G401 cells = details: 4 days, acid-extracted histones, immunoblot
Procedure: as §2, §3

WSU-DLCL2 cells [9] = test: Cell cycle progression and apoptosis (TUNEL), WSU-DLCL2; assay type: cell-based, human
SETD7 = SETD7 (Homo sapiens, UniProt Q8WTS6); test: Histone methyltransferase inhibition, SETD7; assay type: biochemical; details: read-out: % Inhibition at 1 μM Compound A, mean and SD of duplicate experiments
WHSC1L1 = WHSC1L1 (Homo sapiens, UniProt Q9BZ95); test: Histone methyltransferase inhibition, WHSC1L1; assay type: biochemical
[10] = tested on: RD SMARCB1 wild-type cells; test: Cell cycle analysis (flow cytometry) and TUNEL assay, RD; assay type: cell-based; details: 1 μM, up to 14 days
Procedure: as §4

[11] = tested on: SNF5 mutant cell line A204; test: Response of cell lines to Compound E (FIG. 2), A204; assay type: cell-based
[12] = tested on: ATRX mutant SCLC line NCI-H841; test: Response and morphology of ATRX mutant SCLC line NCI-H841 with Compound E; assay type: cell-based
[13] = tested on: ATRX mutant SCLC line SW1271; test: Response of ATRX mutant SCLC lines to Compound E, SW1271; assay type: cell-based
[14] = tested on: G401 SNF mutant cell line; test: Soft agar growth, G401; assay type: cell-based; details: after 7 days
[15] = tested on: ATRX mutant SCLC line NCI-H446; test: Response of ATRX mutant SCLC lines to Compound E, NCI-H446; assay type: cell-based
[16] = tested on: SNF5 mutant cell line G401; test: Response of cell lines to Compound E (FIG. 2), G401; assay type: cell-based
[17] = tested on: SNF5 mutant cell line G402; test: Response of cell lines to Compound E (FIG. 2), G402; assay type: cell-based
[18] = tested on: LNCAP prostate cancer cells; test: Cell growth inhibition in vitro, LNCAP; assay type: cell-based
[19] = read-out: % Inhibition at 1 μM Compound A, mean and SD of duplicate experiments
[20] = 4-day Compound A, 11-day Washout
[21] = 7-day Compound A, 7-day Washout

Chain of PRMT1 (Q99873 whole entry, species assumed): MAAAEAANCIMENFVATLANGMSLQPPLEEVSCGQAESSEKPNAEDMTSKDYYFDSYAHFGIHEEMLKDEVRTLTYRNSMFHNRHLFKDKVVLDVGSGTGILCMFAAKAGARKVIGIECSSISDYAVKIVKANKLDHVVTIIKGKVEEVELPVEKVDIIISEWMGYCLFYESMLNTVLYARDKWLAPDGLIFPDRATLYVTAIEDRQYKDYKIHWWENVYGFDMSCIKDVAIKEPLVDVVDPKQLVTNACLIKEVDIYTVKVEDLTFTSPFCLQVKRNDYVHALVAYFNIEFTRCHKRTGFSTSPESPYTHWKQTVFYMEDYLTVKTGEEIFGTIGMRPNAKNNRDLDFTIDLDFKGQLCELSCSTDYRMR
Chain of WHSC1 (O96028 whole entry, species assumed): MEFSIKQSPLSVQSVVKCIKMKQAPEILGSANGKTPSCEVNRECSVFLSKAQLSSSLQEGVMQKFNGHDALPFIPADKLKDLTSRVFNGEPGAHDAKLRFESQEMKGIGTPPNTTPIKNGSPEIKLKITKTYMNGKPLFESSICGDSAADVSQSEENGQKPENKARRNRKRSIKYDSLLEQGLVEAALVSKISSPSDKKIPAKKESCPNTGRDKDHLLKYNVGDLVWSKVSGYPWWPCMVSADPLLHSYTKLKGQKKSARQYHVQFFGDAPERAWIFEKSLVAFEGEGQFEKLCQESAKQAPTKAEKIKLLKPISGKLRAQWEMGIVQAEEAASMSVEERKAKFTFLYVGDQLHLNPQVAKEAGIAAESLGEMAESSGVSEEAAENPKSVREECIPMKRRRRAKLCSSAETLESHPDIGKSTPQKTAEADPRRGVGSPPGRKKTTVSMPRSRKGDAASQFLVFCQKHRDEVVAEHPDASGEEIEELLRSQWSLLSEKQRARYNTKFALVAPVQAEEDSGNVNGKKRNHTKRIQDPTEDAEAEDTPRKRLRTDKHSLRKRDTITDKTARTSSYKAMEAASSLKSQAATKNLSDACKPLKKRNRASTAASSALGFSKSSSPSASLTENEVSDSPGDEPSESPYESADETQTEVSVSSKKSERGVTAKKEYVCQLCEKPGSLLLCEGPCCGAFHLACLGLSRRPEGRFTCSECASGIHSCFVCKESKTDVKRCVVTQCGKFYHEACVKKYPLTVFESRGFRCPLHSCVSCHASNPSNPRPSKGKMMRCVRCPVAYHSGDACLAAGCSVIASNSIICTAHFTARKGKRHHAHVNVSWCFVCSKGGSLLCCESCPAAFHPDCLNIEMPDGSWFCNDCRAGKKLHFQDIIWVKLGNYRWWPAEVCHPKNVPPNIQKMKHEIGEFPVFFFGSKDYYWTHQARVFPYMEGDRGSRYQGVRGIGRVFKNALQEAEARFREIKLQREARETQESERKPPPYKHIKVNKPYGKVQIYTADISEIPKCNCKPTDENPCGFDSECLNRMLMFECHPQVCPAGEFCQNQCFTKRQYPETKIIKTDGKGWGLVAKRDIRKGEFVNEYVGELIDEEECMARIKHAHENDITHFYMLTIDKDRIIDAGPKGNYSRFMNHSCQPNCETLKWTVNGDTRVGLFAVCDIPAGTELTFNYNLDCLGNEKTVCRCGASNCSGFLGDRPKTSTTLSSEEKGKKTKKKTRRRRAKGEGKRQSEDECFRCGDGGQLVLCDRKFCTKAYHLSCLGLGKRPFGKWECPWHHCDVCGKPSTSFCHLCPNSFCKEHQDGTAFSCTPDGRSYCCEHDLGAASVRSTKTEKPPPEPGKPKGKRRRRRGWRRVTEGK
Chain of CARM1 (Q86X55 whole entry, species assumed): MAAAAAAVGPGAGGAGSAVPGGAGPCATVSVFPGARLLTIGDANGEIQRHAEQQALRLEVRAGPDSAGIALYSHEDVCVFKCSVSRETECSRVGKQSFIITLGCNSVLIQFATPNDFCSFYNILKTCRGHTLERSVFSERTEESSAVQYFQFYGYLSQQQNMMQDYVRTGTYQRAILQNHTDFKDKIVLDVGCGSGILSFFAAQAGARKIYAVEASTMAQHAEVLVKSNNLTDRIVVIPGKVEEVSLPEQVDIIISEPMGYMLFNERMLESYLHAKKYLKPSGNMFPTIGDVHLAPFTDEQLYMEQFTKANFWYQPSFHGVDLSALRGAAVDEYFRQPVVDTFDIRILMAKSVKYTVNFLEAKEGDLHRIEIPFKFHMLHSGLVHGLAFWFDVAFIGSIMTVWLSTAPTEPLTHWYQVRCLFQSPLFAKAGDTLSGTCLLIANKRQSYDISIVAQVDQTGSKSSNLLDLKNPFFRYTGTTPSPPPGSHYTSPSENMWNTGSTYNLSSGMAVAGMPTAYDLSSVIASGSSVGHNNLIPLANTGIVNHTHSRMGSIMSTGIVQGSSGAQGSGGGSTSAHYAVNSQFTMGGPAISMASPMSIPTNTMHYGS
Chain of EHMT1 (Q9H9B1 whole entry, species assumed): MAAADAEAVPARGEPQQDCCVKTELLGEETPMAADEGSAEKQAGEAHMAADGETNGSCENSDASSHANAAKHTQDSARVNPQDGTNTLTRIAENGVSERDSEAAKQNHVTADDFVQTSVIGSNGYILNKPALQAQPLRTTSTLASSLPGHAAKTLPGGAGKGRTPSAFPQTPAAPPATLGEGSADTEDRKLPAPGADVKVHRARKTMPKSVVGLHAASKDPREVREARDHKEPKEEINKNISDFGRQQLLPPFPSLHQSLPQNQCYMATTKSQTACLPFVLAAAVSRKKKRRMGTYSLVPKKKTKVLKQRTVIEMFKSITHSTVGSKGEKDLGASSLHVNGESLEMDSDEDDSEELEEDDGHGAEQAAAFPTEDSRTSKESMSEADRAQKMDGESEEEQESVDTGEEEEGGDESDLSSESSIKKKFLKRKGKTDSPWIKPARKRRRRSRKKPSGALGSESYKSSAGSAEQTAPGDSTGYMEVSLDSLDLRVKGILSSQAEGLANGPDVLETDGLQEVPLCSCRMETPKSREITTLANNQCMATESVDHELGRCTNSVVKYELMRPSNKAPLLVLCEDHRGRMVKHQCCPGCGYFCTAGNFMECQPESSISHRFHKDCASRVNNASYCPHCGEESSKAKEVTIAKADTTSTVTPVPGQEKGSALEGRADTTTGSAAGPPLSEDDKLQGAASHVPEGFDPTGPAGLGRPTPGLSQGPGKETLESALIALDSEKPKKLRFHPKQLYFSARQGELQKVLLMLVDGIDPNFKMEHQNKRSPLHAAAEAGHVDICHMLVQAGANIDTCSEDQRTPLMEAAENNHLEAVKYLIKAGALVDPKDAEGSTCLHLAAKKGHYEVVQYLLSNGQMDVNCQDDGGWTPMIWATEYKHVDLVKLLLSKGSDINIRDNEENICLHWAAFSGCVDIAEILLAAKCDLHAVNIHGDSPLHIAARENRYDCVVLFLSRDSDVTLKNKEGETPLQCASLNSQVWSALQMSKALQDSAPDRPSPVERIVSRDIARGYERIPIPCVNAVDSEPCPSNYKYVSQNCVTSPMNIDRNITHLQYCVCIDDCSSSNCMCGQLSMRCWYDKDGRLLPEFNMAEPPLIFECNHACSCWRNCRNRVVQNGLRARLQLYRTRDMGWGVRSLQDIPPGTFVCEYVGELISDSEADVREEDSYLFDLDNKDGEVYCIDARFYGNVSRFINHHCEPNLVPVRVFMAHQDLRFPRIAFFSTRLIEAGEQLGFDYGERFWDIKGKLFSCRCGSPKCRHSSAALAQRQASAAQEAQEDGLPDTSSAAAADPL
Chain of SMYD2 (Q9NRG4 whole entry, species assumed): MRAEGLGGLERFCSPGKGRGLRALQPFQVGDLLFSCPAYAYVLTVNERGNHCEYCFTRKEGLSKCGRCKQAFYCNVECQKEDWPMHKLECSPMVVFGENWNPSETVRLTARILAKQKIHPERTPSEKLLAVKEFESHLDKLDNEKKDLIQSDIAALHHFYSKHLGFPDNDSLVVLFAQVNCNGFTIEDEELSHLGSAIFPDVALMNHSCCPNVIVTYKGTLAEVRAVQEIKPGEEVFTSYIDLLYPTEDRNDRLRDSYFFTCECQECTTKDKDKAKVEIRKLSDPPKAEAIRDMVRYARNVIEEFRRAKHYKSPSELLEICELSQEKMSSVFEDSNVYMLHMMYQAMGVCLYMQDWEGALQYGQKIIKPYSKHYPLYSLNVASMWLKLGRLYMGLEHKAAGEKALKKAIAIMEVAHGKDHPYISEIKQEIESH
Chain of PRMT8 (Q9NR22 whole entry, species assumed): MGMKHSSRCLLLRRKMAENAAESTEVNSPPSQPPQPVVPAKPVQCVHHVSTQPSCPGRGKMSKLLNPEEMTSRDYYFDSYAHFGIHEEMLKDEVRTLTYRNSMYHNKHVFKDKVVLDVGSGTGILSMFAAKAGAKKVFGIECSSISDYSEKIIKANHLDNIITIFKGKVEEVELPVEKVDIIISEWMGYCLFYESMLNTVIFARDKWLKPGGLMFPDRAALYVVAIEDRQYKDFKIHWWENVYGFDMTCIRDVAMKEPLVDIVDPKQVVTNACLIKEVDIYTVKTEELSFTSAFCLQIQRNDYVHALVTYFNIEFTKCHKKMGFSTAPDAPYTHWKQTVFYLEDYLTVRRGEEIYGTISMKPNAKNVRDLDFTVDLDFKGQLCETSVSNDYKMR
Chain of SETD7 (Q8WTS6 whole entry, species assumed): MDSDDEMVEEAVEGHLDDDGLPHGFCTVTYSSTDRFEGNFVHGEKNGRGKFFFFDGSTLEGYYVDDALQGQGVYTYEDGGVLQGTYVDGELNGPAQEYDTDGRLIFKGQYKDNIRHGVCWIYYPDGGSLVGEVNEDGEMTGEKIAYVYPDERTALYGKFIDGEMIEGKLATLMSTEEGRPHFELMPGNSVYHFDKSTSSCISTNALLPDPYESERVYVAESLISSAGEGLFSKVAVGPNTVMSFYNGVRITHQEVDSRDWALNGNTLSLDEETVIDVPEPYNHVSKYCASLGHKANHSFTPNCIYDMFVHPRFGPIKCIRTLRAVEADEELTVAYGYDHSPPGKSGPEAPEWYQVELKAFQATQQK

With `CCN(c1cc(-c2ccc(CN3CCOCC3)cc2)cc(C(=O)NCc2c(C)cc(C)[nH]c2=O)c1C)C1CCOCC1` [Compound A, N-((4,6-dimethyl-2-oxo-1,2-dihydropyridin-3-yl)methyl)-5-(ethyl (tetrahydro-2H-pyran-4-yl)amino)-4-methyl-4′-(morpholinomethyl)-[1,1′-biphenyl]-3-carboxamide] the “LCC for WSU-DLCL2 cells as plasma level” value (WSU-DLCL2 cells [1]) was 1652 ng/mL, the “expression of the SMARCB1 regulated genes” value [2] was “minimal effect on expression” and the IC50 (CARM1; mean of duplicate experiments) was greater than 50 µM. It also gave an inhibition at 1 µM (CARM1; read-out: % Inhibition at 1 μM Compound A, mean and standard deviation of duplicate experiments) of 5 ± 3%, an IC50 (EHMT2; one experiment) greater than 50 µM and an inhibition at 1 µM (EHMT2; [19]) of 7 ± 3%. The inhibition at 1 µM (PRMT6) was 3 ± 3%, the “sensitivity in vitro (cell viability, CellTiter-Glo)” value (G401 cells) was “sensitive” and the “expression of CDKN1A, CDKN2A and BIN1” value [3] was “up-regulated cell cycle inhibitors CDKN1A and CDKN2A and tumor suppressor BIN1”. For the same compound, the “expression of neuronal differentiation genes CD133, DOCK4, PTPRK” value [3] was “strongly induced expression of CD133, DOCK4 and PTPRK”, the inhibition at 1 µM (SMYD3) was 0% and the “increase in sensitivity over the Y641 mutant cell lines, measured by IC50 value” (Pfeiffer cells) was 20 fold. The “increase in sensitivity over the Y641 mutant cell lines, measured by LCC” value (Pfeiffer cells) was 300 fold, the IC50 (PRMT8; one experiment) was greater than 50 µM and the inhibition at 1 µM (PRMT8; [19]) was 7 ± 3%. The cell morphology [4] was “neuron-like morphology”, the “specificity for inhibition of cellular histone methylation” value (H3K27Me3 in RD cells) was “selective inhibition of cellular H3K27 methylation” and the IC50 (DOT1L; one experiment) was greater than 50 µM. It also gave an inhibition at 1 µM (DOT1L; [19]) of 2 ± 8%, an IC50 (SMYD2; one experiment) greater than 50 µM and an inhibition at 1 µM (SMYD2; [19]) of 1 ± 2%. For the same compound, the “tumor growth after the dosing period compared to vehicle” value ([5]; 125 mg/kg) was “significant tumor growth delay”, the “tumor growth after dosing stop compared to vehicle” value ([5]; 133 mg/kg) was “significant tumor growth delay” and the tumor re-growth ([5]; 250 or 500 mg/kg BID, 32 days after dose cessation) was “Re-growth was not observed”. For the same compound, the antitumor effect ([5]; 250 or 500 mg/kg twice daily (BID) for 21 to 28 days) was “practically eliminated”, the antitumor effect ([5]; 266 or 532 mg/kg BID for 28 days) was “eliminated” and the tumor re-growth ([5]; 266 or 532 mg/kg BID, study end, 32 days after dosing stop) was “re-growth was not observed”. The “plasma levels (systemic exposure)” value ([5]; 5 min before or 3 h after dosing on day 21, LC-MS/MS) was “dose-dependent increase in systemic exposure”, the “gene expression in G401 xenograft tumors” value ([5]; treated 21 days, qPCR) was “dose-dependent changes in the expression of CD133, PTPRK, DOCK4 and GLI1” and the “H3K27me3 in tumors (ELISA)” value ([5]; tumors harvested on day 21, maximum effect at 250 mg/kg) was “strong inhibition of H3K27me3”. For the same compound, the “Day 11 LCC” value [6, 20] was 0.36 µM, the “Day 14 LCC” value [6, 20] was 0.42 µM and the “Day 11 LCC” value [6, 21] was 0.19 µM. For the same compound, the “Day 14 LCC” value [6, 21] was 0.075 µM, the “Day 11 LCC” value ([6]; No Washout) was 0.17 µM and the “Day 14 LCC” value ([6]; No Washout) was 0.11 µM. For the same compound, the “cell cycle (G1 arrest)” value [7] was “increase in the percentage of cells in G1 phase, and a concomitant decrease in S phase and G2/M phase after 7 days; also recorded: G1 arrest was observed as of day 7”, the “sub-G1 fraction and apoptotic cells (TUNEL assay)” value [7] was “increased in a time dependent manner; also recorded: apoptosis was induced as of day 11” and the IC50 (PRMT1; one experiment) was greater than 50 µM. For the same compound, the inhibition at 1 µM (PRMT1; [19]) was 5 ± 4%, the oral bioavailability [8] was “excellent” and the “antitumor effect, intermittent dosing schedules” value (KARPAS-422 xenografts; 90 mg/kg BID) was “tumor growth inhibition”. The “antitumor effect, intermittent dosing schedules” value (KARPAS-422 xenografts; 361 mg/kg BID) was “complete regressions”, the “tumor H3K27Me3 levels” value (KARPAS-422 xenografts; 7-day study, nude mice, BID and QD schedules) was “dose-dependent reduction of tumor H3K27Me3 levels” and the “tumor re-growth after cessation of dosing” value (KARPAS-422 xenografts; higher doses, up to 90 days after cessation of dosing) was “no re-growth”. For the same compound, the “growth over 11 days” value (OCI-LY19 cells) was “not significantly affected”, the IC50 (WHSC1; one experiment) was greater than 100 µM and the inhibition at 1 µM (WHSC1; [19]) was 8 ± 3%. The IC50 (EHMT1; one experiment) was greater than 50 µM, the inhibition at 1 µM (EHMT1; [19]) was 6 ± 6% and the IC50 (PRMT5/MEP50; one experiment) was greater than 50 µM. For the same compound, the inhibition at 1 µM (PRMT5/MEP50; [19]) was 2 ± 6%, the inhibition at 1 µM (PRMT3) was 2 ± 2% and the “specificity for inhibition of cellular histone methylation” value (H3K27Me3 in G401 cells) was “selective inhibition of cellular H3K27 methylation”. For the same compound, the sub-G1 fraction (WSU-DLCL2 cells [9]; 1 μM, 7 days) was “no apparent increase in the sub-G1 fraction”, the cell cycle progression (WSU-DLCL2 cells [9]; 1 μM, apparent after 2 days, maximum after 4 days) was “increase in the percentage of cells in G1 phase, and a decrease in the percentage of cells in S phase and G2/M phase” and the “fraction of apoptotic cells (TUNEL assay)” value (WSU-DLCL2 cells [9]; day 14 compared to vehicle) was “significantly increased”. For the same compound, the inhibition at 1 µM (SETD7) was 4 ± 3%, the IC50 (WHSC1L1; one experiment) was greater than 100 µM and the inhibition at 1 µM (WHSC1L1; [19]) was 9 ± 8%. For the same compound, the “cell cycle and apoptosis compared to DMSO control” value [10] was “no changes in cell cycle or apoptosis”.

For `CCN(c1cc(-c2ccc(CN3CCOCC3)cc2)cc(C(=O)NCc2c(C)cc(C)[nH]c2=O)c1C)[C@H]1CC[C@H](N(C)C)CC1` [Compound E, N-((4,6-dimethyl-2-oxo-1,2-dihydropyridin-3-yl)methyl)-5-(((1r,4r)-4-(dimethylamino)cyclohexyl)(ethyl)amino)-4-methyl-4′-(morpholinomethyl)-[1,1′-biphenyl]-3-carboxamide], the “response compared to wild type cell lines RD and SJCRH30” value [11] was “selectively respond”, the response [12] was “responding” and the cell morphology ([12]; 4.1E-02 uM or 3.3 uM) was “changes morphology”. For the same compound, the response [13] was “responding”, the “response in soft agar compared to wild type cells RD” value [14] was “responding” and the response [15] was “responding”. For the same compound, the “response compared to wild type cell lines RD and SJCRH30” value [16] was “selectively respond”, the “response compared to wild type cell lines RD and SJCRH30” value [17] was “selectively respond” and the cell growth inhibition [18] was “dose-dependent cell growth inhibition”.
